Measured values as given in patent US9663496B2, “AMPK-activating heterocyclic compounds and methods for using the same” (Rigel Pharmaceuticals, Inc., priority 2010, dated 2017).

Target: AMPK
Assay: AMPK activation, enzyme-linked immunosorbent assay
Type: biochemical
Settings: EC50 for AMPK activation, ELISA
Procedure, shortened: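 Test compounds were added, and kinase activation was then detected by immunoassay following established kit procedures.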

Compound	EC50 [nM]
N#Cc1ccc(C(=O)N2CCC(NC(=O)c3ccc(C(=O)N4CCN(Cc5ccc(F)cc5)CC4)cn3)CC2)cc1 [Compound 4, N-(1-(4-cyanobenzoyl)piperidin-4-yl)-5-(4-(4-fluorobenzyl)piperazine-1-carbonyl)picolinamide]	500 to 1000
COc1ccc(C(=O)C2CCN(C(=O)c3ccc(C(=O)Nc4ccc(Oc5ccc(C#N)cc5)nc4)cn3)CC2)cc1 [Compound 460, N-(6-(4-cyanophenoxy)pyridin-3-yl)-6-(4-(4-methoxybenzoyl)piperidine-1-carbonyl)nicotinamide]	< 500
COc1ccc(C(=O)C2CCN(C(=O)c3ncc(C(=O)NC4CCN(Cc5ccc(C#N)cc5)CC4)cc3CCCNC(=O)OC(C)(C)C)CC2)cc1 [Compound 416, tert-butyl 3-(5-(1-(4-cyanobenzyl)piperidin-4-ylcarbamoyl)-2-(4-(4-methoxybenzoyl)piperidine-1-carbonyl)pyridin-3-yl)propylcarbamate]	1000 to 5000
N#Cc1ccc(CN2CCC(NC(=O)c3ccc(N4CCCC(Oc5ccc(C#N)cc5)C4)cn3)CC2)cc1 (centres unmarked) [Compound 265, N-(1-(4-cyanobenzyl)piperidin-4-yl)-5-(3-(4-cyanophenoxy)piperidin-1-yl)picolinamide]	1000 to 5000
N#Cc1ccc(Oc2ccc(NC(=O)c3ccc(C(=O)N4CCC(C(=O)c5ccc(F)cc5F)CC4)nc3)nc2)cc1 [Compound 469, N-(5-(4-cyanophenoxy)pyridin-2-yl)-6-(4-(2,4-difluorobenzoyl)piperidine-1-carbonyl)nicotinamide]	< 500
O=C(NCc1ccccc1)c1ccc(C(=O)N2CCN(Cc3ccc(F)cc3)CC2)cn1 [Compound 115, N-benzyl-5-(4-(4-fluorobenzyl)piperazine-1-carbonyl)picolinamide]	5000 to 10000
O=C(NC1CCN(Cc2ccccc2)CC1)c1ccc(C(=O)N2CCN(Cc3ccccc3)CC2)cn1 [Compound 72, 5-(4-benzylpiperazine-1-carbonyl)-N-(1-benzylpiperidin-4-yl)picolinamide]	< 500
N#Cc1ccc(OC2CCN(C(=O)c3ccc(C(=O)NC4CCN(c5ccc(F)cc5)CC4)cn3)CC2)cc1 [Compound 422, 6-(4-(4-cyanophenoxy)piperidine-1-carbonyl)-N-(1-(4-fluorophenyl)piperidin-4-yl)nicotinamide]	1000 to 5000
O=C(NC1CCN(Cc2ccc(N3CCCC3)cc2)CC1)c1ccc(C(=O)N2CCC(C(=O)c3ccc(N4CCCC4)cc3)CC2)nc1 [Compound 444, 6-(4-(4-(pyrrolidin-1-yl)benzoyl)piperidine-1-carbonyl)-N-(1-(4-(pyrrolidin-1-yl)benzyl)piperidin-4-yl)nicotinamide]	< 500
N#Cc1ccc(OC2CCN(C(=O)c3ccc(C(=O)NC4CCNCC4)cn3)CC2)cc1 [Compound 335, 6-(4-(4-cyanophenoxy)piperidine-1-carbonyl)-N-(piperidin-4-yl)nicotinamide]	> 10000
COc1ccc(N2CCC(NC(=O)c3ccc(C(=O)N4CCN(Cc5ccc(F)cc5)CC4)nc3)CC2)cc1 [Compound 405, 6-(4-(4-fluorobenzyl)piperazine-1-carbonyl)-N-(1-(4-methoxyphenyl)piperidin-4-yl)nicotinamide]	< 500
CN(C)C(=O)c1ccc(Oc2ccc(NC(=O)c3ccc(C(=O)N4CCC(C(=O)c5ccc(F)cc5F)CC4)nc3)cn2)cc1 [Compound 481, 6-(4-(2,4-difluorobenzoyl)piperidine-1-carbonyl)-N-(6-(4-(dimethylcarbamoyl)phenoxy)pyridin-3-yl)nicotinamide]	< 500
N#Cc1ccc(OC2CCN(C(=O)c3ccc(C(=O)NC4CCN(Cc5ccc(N6CCOCC6)cc5)CC4)cn3)CC2)cc1 [Compound 337, 6-(4-(4-cyanophenoxy)piperidine-1-carbonyl)-N-(1-(4-morpholinobenzyl)piperidin-4-yl)nicotinamide]	< 500
COc1ccc(C(=O)C2CCN(C(=O)c3cnc(C(=O)NC4CCN(Cc5ccc(C#N)cc5)CC4)cn3)CC2)cc1 [Compound 211, N-(1-(4-cyanobenzyl)piperidin-4-yl)-5-(4-(4-methoxybenzoyl)piperidine-1-carbonyl)pyrazine-2-carboxamide]	< 500
COc1ccc(CN2CCN(C(=O)c3ccc(C(=O)NC4CCN(Cc5ccc(C#N)cc5)CC4)nc3)CC2)cc1 [Compound 101, N-(1-(4-cyanobenzyl)piperidin-4-yl)-5-(4-(4-methoxybenzyl)piperazine-1-carbonyl)picolinamide]	< 500
COc1ccc(CC2CCN(C(=O)c3ccc(C(=O)NC4CCN(Cc5ccc(C#N)cc5)CC4)nc3)CC2)cc1 [Compound 131, N-(1-(4-cyanobenzyl)piperidin-4-yl)-5-(4-(4-methoxybenzyl)piperidine-1-carbonyl)picolinamide]	< 500
N#Cc1ccc(CN2CCC(NC(=O)c3ccc(C(=O)N4CCC(Oc5ccc(S(=O)(=O)C6CC6)cc5)CC4)nc3)CC2)cc1 [Compound 246, N-(1-(4-cyanobenzyl)piperidin-4-yl)-6-(4-(4-(cyclopropylsulfonyl)phenoxy)piperidine-1-carbonyl)nicotinamide]	< 500
N#Cc1ccc(CN2CCC(NC(=O)c3ccc(C(=O)N4CCN(c5ccc(C#N)cc5)CC4)cn3)CC2)cc1 [Compound 340, N-(1-(4-cyanobenzyl)piperidin-4-yl)-5-(4-(4-cyanophenyl)piperazine-1-carbonyl)picolinamide]	< 500
N#Cc1ccc(OC2CCN(C(=O)c3ccc(C(=O)NC4CCN(Cc5ccc(F)cc5)CC4)nc3)CC2)cc1 [Compound 200, 5-(4-(4-cyanophenoxy)piperidine-1-carbonyl)-N-(1-(4-fluorobenzyl)piperidin-4-yl)picolinamide]	< 500
COc1ccc(C(=O)C2CCN(C(=O)c3ccc(C(=O)NC4CCN(Cc5ccc(C(=O)N(C)C)cc5)CC4)cn3)CC2)cc1 [Compound 490, N-(1-(4-(dimethylcarbamoyl)benzyl)piperidin-4-yl)-6-(4-(4-methoxybenzoyl)piperidine-1-carbonyl)nicotinamide]	1000 to 5000
N#Cc1ccc(CN2CCC(NC(=O)c3ncc(C(=O)N4CCN(Cc5ccc(F)cc5)CC4)cc3C#CCNC(=O)COCCOCCOCCOCCNC(=O)CCCC[C@@H]3SC[C@@H]4NC(=O)N[C@@H]43)CC2)cc1 [Compound 159, N-(1-(4-cyanobenzyl)piperidin-4-yl)-3-(5,20-dioxo-24-((3aS,4S,6aR)-2-oxohexahydro-1H-thieno[3,4-d]imidazol-4-yl)-7,10,13,16-tetraoxa-4,19-diazatetracos-1-ynyl)-5-(4-(4-fluorobenzyl)piperazine-1-carbonyl)picolinamide]	1000 to 5000
COc1ccc(C(=O)C2CCN(C(=O)c3ccc(C(=O)Nc4ccc(S(=O)(=O)c5ccc(F)cc5)nc4)cn3)CC2)cc1 [Compound 467, N-(6-(4-fluorophenylsulfonyl)pyridin-3-yl)-6-(4-(4-methoxybenzoyl)piperidine-1-carbonyl)nicotinamide]	1000 to 5000
COc1ccc(C(=O)C2CCN(C(=O)c3ccc(C(=O)N[C@H]4CC[C@@H](Oc5cc(F)cc(F)c5)CC4)nc3)CC2)cc1 [Compound 300, N-((cis)-4-(3,5-difluorophenoxy)cyclohexyl)-5-(4-(4-methoxybenzoyl)piperidine-1-carbonyl)picolinamide]	< 500
